For orientation: Ki means the dissociation constant of the complex between target and ligand, obtained from inhibition or displacement. Usually pA2 stands for a measure of antagonist potency on a negative log scale.

One assay deals with T1, human SERT (Homo sapiens, UniProt P31645).
T1 construct: expressed in transfected cells; host or cells: HEK293 membranes
The assay is described as follows: Human SERT 3H-citalopram binding. As to conditions: HEK293 membranes expressing the human SERT, rt 1 h. How it is done: Homogenized HEK293 (Human Embryonic Kidney) membranes expressing the human SERT were incubated with ^3H-citalopram (SERT) at rt for 1 h in 50 mM Tris, 120 mM NaCl, 5 mM KCl (pH 7.4). […] The membranes were washed and the radioactivity was counted as above.

The target of assay [1] is T2, human H3 receptor (Homo sapiens, UniProt Q9Y5N1).
T2 construct: expressed in transfected cells
The assay is described as follows: Cyclic AMP accumulation (β-galactosidase reporter). It is filed as cell-based. Conditions: for pA2: SK-N-MC cells expressing human H3 receptor and reporter, histamine agonist, forskolin 5 μM, Schild regression of pEC50 values; for Kb: read-out: pA2 (converted). How it is done: Sublines of SK—N-MC cells were created that expressed a reporter construct and the human H3 receptor. The reporter gene (β-galactosidase) is under the control of multiple cyclic AMP responsive elements. In 96-well plates, histamine was added directly to the cell media followed 5 min later by an addition of forskolin (5 μM final concentration). When appropriate, antagonists were added 10 min prior to agonist addition. After a 6-h incubation at 37° C., the media was aspirated and the cells washed with 200 μL of phosphate-buffered saline followed by a second aspiration. Cells were lysed with 25 μL 0.1× assay buffer (10 mM Na-phosphate, pH 8, 0.2 mM MgSO4, 0.01 mM MnCl2) and incubated at rt for 10 min. […] Color was developed using 25 μL of 1 mg/mL substrate solution (chlorophenolred β-D galactopyranoside; Roche Molecular Biochemicals, Indianapolis, Ind.).

The next assay concerns the target T3, Rat SERT (Rattus norvegicus, UniProt P31652).
T3 construct: A rat brain without cerebellum (Zivic Laboratories, Inc.—Pittsburgh, Pa.) was homogenized; tissue Zivic Laboratories, Inc; host or cells: rat brain without cerebellum, membrane preparation
The assay is described as follows: Rat brain SERT [3H]-citalopram binding. Conditions: rat brain membranes, 0.6 nM [3H]-Citalopram, 60 min at 25° C. Here is the method: The supernatant was removed and re-centrifuged at 15,000 rpm for 30 min. […] Membranes were incubated with 0.6 nM [^3H]-Citalopram plus/minus test compounds for 60 min at 25° C. and harvested by rapid filtration over GF/C glass fiber filters (pretreated with 0.3% polyethylenimine) followed by four washes with ice-cold buffer.

The target in assay [2] is T2, human H3 receptor. The assay is described as follows: H3 receptor binding. As to conditions: cloned human H3 receptor stably expressed in SK-N-MC cells.

T3 sequence (P31652 whole entry): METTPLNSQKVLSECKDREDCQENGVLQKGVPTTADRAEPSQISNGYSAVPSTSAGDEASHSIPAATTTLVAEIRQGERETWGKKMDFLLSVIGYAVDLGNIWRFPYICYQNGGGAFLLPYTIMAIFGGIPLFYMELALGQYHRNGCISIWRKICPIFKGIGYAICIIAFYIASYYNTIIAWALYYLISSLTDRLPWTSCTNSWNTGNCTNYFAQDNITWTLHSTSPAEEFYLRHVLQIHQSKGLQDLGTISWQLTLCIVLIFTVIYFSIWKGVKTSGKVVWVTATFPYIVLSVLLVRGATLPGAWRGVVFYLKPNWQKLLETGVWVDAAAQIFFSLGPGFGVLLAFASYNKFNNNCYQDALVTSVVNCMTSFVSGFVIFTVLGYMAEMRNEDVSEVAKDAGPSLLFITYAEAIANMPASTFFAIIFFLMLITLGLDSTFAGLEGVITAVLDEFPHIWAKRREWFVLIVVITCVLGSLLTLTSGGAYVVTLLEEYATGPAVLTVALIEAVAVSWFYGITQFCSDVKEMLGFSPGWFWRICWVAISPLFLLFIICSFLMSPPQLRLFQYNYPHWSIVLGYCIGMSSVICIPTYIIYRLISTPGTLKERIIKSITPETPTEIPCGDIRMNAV
T1 sequence (P31645 whole entry): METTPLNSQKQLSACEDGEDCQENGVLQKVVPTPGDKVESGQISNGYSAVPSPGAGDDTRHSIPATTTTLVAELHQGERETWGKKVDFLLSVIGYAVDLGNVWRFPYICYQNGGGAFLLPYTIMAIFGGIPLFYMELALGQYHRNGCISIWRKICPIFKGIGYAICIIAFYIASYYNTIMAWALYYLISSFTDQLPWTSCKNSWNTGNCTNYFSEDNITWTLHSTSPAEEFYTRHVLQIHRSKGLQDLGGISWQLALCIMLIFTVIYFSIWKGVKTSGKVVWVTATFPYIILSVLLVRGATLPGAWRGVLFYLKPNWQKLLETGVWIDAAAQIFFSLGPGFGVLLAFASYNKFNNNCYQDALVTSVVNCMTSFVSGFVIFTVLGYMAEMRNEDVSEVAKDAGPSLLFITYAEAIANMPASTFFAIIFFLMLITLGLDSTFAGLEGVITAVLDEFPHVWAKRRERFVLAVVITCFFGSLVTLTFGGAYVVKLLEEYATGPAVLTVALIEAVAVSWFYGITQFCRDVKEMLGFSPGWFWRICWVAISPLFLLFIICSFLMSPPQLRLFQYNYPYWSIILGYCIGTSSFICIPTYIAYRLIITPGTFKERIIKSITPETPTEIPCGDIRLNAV
T2 sequence (Q9Y5N1 whole entry): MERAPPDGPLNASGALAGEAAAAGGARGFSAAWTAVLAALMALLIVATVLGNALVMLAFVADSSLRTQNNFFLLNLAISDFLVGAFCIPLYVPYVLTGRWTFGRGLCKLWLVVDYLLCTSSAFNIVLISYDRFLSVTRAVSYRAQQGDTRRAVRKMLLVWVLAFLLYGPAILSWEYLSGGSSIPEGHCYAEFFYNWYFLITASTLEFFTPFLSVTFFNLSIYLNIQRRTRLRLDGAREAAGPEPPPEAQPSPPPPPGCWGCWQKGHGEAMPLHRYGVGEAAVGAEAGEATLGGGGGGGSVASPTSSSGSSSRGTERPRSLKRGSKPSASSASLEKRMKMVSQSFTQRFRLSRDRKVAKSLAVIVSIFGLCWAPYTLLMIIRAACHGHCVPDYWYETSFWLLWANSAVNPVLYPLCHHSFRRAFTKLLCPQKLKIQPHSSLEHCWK

`CNCc1cc(C#CCCN2CCOCC2)ccc1Oc1cccc(F)c1` [Example 8, [2-(3-Fluoro-phenoxy)-5-(4-morpholin-4-yl-but-1-ynyl)-benzyl]-methyl-amine]: the inhibition constant (Ki) on human SERT worked out at 24 nM; at Rat SERT, 10 nM; on human H3 receptor [2], 3 nM. Besides, the pA2 at human H3 receptor [1] is given as 8.45.
As for `CNCc1cc(C#CCCN(C)C2CC2)ccc1Oc1ccc(SC)cc1` [Example 16, Cyclopropyl-methyl-{4-[3-methylaminomethyl-4-(4-methylsulfanyl-phenoxy)-phenyl]-but-3-ynyl}-amine], the Ki at human SERT was determined as 1.1 nM; on Rat SERT, 1.3 nM; on human H3 receptor [2], 6.1 nM. The pA2 on human H3 receptor [1] was found to be 9.10.
The corresponding values for `CNCc1cc(C#CCCN2CCOCC2)ccc1Oc1ccc(F)cc1Cl` [Example 28, [2-(2-Chloro-4-fluoro-phenoxy)-5-(4-morpholin-4-yl-but-1-ynyl)-benzyl]-methyl-amine] are 3.6 nM, 3.4 nM, 6 nM and 8.78.
Turning to `CNCc1cc(C#CCCN2CCC(F)CC2)ccc1Oc1ccc(SC)cc1` [Example 11, [5-[4-(4-Fluoro-piperidin-1-yl)-but-1-ynyl]-2-(4-methylsulfanyl-phenoxy)-benzyl]-methyl-amine], the inhibition constant (Ki) at human SERT is 0.9 nM; on Rat SERT, 0.6 nM; on human H3 receptor [2], 6 nM. Also, the pA2 on human H3 receptor [1] is 8.12.
For the compound `CNCc1cc(C#CCCN2CCOCC2)ccc1Oc1ccc(Cl)c(C(F)(F)F)c1` [Example 27, [2-(4-Chloro-3-trifluoromethyl-phenoxy)-5-(4-morpholin-4-yl-but-1-ynyl)-benzyl]-methyl-amine], the results for the inhibition constant Ki on human SERT, on Rat SERT and on human H3 receptor [2] were 17 nM, 7.3 nM and 13 nM, respectively. This compound also had a pA2 at human H3 receptor [1] of 7.89.
For the compound `C(#Cc1ccc(Oc2cccnc2)c(CNC2CC2)c1)CCN1CCOCC1` [Example 23, Cyclopropyl-[5-(4-morpholin-4-yl-but-1-ynyl)-2-(pyridine-3-yloxy)-benzyl]-amine], the inhibition constant Ki at human SERT stood at 58 nM; at Rat SERT, 18 nM; on human H3 receptor [2], 0.7 nM. Moreover, the Kb at human H3 receptor [1] was 0.251 nM.
Regarding `CNCc1cc(C#CCCN2CCOCC2)ccc1Oc1ccc(C(F)(F)F)cc1` [Example 7, Methyl-[5-(4-morpholin-4-yl-but-1-ynyl)-2-(4-trifluoromethyl-phenoxy)-benzyl]-amine], the Ki is 2.7 nM at human SERT, 2 nM on Rat SERT and 7.3 nM at human H3 receptor [2]. For the same compound, on human H3 receptor [1], the pA2 is 7.90.
The corresponding values for `CNCc1cc(C#CCCN2CCOCC2)ccc1Oc1cccc(Cl)c1` [Example 12, [2-(3-Chloro-phenoxy)-5-(4-morpholin-4-yl-but-1-ynyl)-benzyl]-methyl-amine] are 7.3 nM, 3 nM, 3 nM and 8.58.
With `CNCc1cc(C#CCCN2CCOCC2)ccc1Oc1ccccn1` [Example 30, Methyl-[5-(4-morpholin-4-yl-but-1-ynyl)-2-(pyridine-2-yloxy)-benzyl]-amine], the Kb at human H3 receptor [1] was 3.16 nM. For the same compound, the figures for the Ki on Rat SERT and at human H3 receptor [2] were 200 nM and 6 nM, respectively.
On to `CNCc1cc(C#CCCN(C)C2CC2)ccc1Oc1ccc(Cl)c(Cl)c1` [Example 18, Cyclopropyl-{4-[4-(3,4-dichloro-phenoxy)-3-methylaminomethyl-phenyl]-but-3-ynyl}-methyl-amine], for which the inhibition constant (Ki) was determined as 5.9 nM on human SERT, 6.4 nM on Rat SERT and 9.7 nM on human H3 receptor [2].

These data come from US7767666B2, “Butyl and butynyl benzyl amine compounds” (Janssen Pharmaceutica NV, priority 2006, dated 2010).
